Data on 17 compounds can be found in ChEMBL document CHEMBL3991601, “The target landscape of clinical kinase drugs” (Science, 2017).

Assay [1] concerns the target T1, Mitogen-activated protein kinase kinase kinase 6 (Homo sapiens, UniProt O95382).
T1 sequence (O95382 whole entry): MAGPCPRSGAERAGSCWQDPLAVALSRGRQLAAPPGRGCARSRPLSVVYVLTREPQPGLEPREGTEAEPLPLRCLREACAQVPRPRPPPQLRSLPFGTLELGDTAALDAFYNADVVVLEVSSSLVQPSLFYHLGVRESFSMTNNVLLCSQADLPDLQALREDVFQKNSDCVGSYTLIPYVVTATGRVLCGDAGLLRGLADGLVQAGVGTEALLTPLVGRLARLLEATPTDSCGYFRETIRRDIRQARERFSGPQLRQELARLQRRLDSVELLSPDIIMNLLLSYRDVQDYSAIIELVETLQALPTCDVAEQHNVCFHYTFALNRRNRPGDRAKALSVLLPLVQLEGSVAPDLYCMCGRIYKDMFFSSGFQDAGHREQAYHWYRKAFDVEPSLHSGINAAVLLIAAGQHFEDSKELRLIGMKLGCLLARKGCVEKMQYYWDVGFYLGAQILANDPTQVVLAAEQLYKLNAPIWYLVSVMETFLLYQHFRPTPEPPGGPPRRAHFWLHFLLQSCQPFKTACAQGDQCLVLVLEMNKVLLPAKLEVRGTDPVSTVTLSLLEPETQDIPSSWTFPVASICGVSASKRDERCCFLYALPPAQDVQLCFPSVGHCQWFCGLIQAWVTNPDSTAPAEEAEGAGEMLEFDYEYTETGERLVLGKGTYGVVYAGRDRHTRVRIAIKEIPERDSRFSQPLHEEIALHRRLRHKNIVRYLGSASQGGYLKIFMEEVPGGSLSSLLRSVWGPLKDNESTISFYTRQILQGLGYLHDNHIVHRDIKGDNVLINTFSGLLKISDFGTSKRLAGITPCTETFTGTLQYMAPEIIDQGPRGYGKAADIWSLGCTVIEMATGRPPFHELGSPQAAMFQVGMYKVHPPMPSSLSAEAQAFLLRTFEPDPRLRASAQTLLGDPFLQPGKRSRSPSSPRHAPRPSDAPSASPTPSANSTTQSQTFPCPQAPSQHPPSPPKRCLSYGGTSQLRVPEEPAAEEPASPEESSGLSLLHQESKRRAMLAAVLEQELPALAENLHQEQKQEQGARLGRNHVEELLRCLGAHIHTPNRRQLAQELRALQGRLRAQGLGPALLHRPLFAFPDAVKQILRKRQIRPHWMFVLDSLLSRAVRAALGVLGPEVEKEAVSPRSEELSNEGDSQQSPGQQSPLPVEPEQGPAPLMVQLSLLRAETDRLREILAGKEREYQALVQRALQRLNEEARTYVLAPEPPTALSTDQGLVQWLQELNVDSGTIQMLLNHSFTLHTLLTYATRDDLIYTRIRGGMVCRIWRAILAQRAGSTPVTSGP

The target of assay [2] is T2, Bone morphogenetic protein receptor type-2 (Homo sapiens, UniProt Q13873).
T2 sequence (Q13873 whole entry): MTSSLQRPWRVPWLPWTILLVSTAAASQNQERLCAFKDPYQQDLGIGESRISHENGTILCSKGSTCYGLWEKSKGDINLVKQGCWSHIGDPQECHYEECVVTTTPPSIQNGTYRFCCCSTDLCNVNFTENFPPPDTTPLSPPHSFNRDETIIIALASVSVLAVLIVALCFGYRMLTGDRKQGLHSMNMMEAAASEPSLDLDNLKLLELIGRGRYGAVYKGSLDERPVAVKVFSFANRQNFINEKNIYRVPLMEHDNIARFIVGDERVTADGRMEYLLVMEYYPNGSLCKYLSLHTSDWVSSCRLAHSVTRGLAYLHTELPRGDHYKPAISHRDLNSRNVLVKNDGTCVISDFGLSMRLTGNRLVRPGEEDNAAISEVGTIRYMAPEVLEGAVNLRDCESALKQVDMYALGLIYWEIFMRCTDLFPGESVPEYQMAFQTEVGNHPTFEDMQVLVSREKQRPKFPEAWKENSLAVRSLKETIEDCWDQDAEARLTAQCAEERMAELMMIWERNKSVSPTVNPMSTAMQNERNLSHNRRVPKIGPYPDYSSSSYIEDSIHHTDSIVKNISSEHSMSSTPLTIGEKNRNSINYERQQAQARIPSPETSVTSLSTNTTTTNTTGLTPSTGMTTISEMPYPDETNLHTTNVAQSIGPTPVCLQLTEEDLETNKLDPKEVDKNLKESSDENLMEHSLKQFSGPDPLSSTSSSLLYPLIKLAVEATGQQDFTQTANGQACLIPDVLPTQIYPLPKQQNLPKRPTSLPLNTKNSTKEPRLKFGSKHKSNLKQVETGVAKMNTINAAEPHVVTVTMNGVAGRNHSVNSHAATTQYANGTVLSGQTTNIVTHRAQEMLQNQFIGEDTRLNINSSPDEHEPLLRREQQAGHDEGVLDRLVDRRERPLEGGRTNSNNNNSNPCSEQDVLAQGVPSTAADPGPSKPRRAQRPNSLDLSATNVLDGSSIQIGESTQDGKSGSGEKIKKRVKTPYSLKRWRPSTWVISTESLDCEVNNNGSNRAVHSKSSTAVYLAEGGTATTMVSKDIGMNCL

Assay [3] deals with Serine/threonine-protein kinase 16 (Homo sapiens, UniProt O75716).
Assay [4] has as its target T3, MAP/microtubule affinity-regulating kinase 4 (Homo sapiens, UniProt Q96L34).
T3 sequence (Q96L34 whole entry): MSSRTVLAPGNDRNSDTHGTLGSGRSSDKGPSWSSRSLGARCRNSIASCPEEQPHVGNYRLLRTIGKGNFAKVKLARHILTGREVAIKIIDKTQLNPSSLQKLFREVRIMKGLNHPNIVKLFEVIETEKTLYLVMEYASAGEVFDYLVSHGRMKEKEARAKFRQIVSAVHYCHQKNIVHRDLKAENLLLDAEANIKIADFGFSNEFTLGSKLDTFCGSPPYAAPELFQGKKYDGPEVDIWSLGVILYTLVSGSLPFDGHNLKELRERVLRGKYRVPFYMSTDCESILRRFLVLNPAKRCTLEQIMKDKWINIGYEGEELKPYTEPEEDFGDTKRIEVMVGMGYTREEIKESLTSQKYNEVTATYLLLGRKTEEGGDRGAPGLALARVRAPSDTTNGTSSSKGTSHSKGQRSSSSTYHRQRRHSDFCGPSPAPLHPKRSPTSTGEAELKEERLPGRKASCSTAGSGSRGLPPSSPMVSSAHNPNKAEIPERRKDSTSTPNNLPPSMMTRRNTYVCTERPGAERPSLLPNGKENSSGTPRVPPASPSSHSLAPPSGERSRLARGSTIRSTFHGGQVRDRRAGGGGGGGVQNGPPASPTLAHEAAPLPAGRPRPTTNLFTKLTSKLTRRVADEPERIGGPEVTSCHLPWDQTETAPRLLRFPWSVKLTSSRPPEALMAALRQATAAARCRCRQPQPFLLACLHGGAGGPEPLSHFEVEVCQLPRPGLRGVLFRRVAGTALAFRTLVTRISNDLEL

The structures appear in SMILES notation. The source made the active and inactive calls. Cut-off read from the data, not from the text of the source, for most assays here: actives have a measured Kd and inactives only a lower limit.
Note: in the data inactive means no Kd found up to 30 µM.

Serine/threonine-protein kinase 16, sequence (O75716 whole entry): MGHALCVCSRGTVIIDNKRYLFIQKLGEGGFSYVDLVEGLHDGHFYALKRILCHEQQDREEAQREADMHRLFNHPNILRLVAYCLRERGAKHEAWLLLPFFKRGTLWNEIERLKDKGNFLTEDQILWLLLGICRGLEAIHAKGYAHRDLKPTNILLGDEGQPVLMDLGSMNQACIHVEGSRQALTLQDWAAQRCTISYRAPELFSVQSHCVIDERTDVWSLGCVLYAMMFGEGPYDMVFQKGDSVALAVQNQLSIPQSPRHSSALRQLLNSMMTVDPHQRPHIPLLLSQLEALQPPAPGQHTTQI

For `Cn1cc(-c2cnc3ccc4ccc(CS(=O)(=O)NCc5ccccn5)cc4c(=O)c3c2)cn1` [MK-8033], the Kd in assay [1], in assay [2], in assay [3] and in assay [4] was > 30 µM (inactive) throughout.

With `FC(F)(F)c1ccc(/C=C/c2nc(COc3ccc(CCCCn4ccnn4)cc3)co2)cc1` [MUBRITINIB], the Kd in assay [1], in assay [2], in assay [3] and in assay [4] was > 30 µM (inactive) throughout.

As for `COc1ncc(-c2ccc3nccc(-c4ccnnc4)c3c2)cc1NS(=O)(=O)c1ccc(F)cc1F` [OMIPALISIB], the Kd in assay [1], in assay [2], in assay [3] and in assay [4] was > 30 µM (inactive) in each case.

For the compound `NC(=O)c1c(OCc2c(F)cc(Br)cc2F)nsc1NC(=O)NCCCCN1CCCC1` [OSI-632], the Kd in assay [1], in assay [2], in assay [3] and in assay [4] was > 30 µM (inactive) in each case.

For the compound `CCOc1cc2ncc(C#N)c(Nc3ccc(F)c(Cl)c3)c2cc1NC(=O)/C=C/CN(C)C` [PELITINIB], the Kd in assay [1], in assay [2], in assay [3] and in assay [4] was > 30 µM (inactive) in each case.

`Cc1nc(Nc2n[nH]c3c2CN(C(=O)N[C@H](CN(C)C)c2ccccc2)C3(C)C)c2sccc2n1` [PF-03758309]: the Kd (usually a measure of binding affinity in units of concentration) in assay [1] was > 30 µM (inactive); in assay [2] it was > 30 µM (inactive); in assay [3] it was 5.45 µM (active); in assay [4], 0.029 µM (active).

On to `Cc1cnc(NC(=O)Nc2cc(Br)c(C)cc2OC[C@@H]2CNCCO2)cn1` [RABUSERTIB], for which the Kd in assay [1], in assay [2], in assay [3] and in assay [4] was > 30 µM (inactive) each time.

Regarding `CO[C@H]1C[C@@H]2CC[C@@H](C)[C@@](O)(O2)C(=O)C(=O)N2CCCC[C@H]2C(=O)O[C@H]([C@H](C)C[C@@H]2CC[C@@H](OP(C)(C)=O)[C@H](OC)C2)CC(=O)[C@H](C)/C=C(\C)[C@@H](O)[C@@H](OC)C(=O)[C@H](C)C[C@H](C)/C=C/C=C/C=C/1C` [RIDAFOROLIMUS], the Kd in assay [1], in assay [2], in assay [3] and in assay [4] was > 30 µM (inactive) throughout.

Take `N#CC1(c2ccc(NC(=O)c3cccnc3NCc3ccncc3)cc2)CCCC1` [RIVOCERANIB]: the Kd in assay [1], in assay [2], in assay [3] and in assay [4] was > 30 µM (inactive) each time.

As to `O=c1[nH]ccc2cc(OC3CCNCC3)ccc12` [SAR-407899 FREE BASE], the Kd in assay [1], in assay [2], in assay [3] and in assay [4] was > 30 µM (inactive) each time.

On to `CN1CCN(CCOc2cc(OC3CCOCC3)c3c(Nc4c(Cl)ccc5c4OCO5)ncnc3c2)CC1` [SARACATINIB], for which the Kd in assay [1], in assay [2], in assay [3] and in assay [4] was > 30 µM (inactive) each time.

As for `Cn1cc(-c2cnn3c(N)c(Br)c([C@@H]4CCCNC4)nc23)cn1` [SCH-900776], the Kd in assay [1], in assay [2], in assay [3] and in assay [4] was > 30 µM (inactive) each time.

Regarding `CO[C@H]1C[C@@H]2CC[C@@H](C)[C@@](O)(O2)C(=O)C(=O)N2CCCC[C@H]2C(=O)O[C@H]([C@H](C)C[C@@H]2CC[C@@H](O)[C@H](OC)C2)CC(=O)[C@H](C)/C=C(\C)[C@@H](O)[C@@H](OC)C(=O)[C@H](C)C[C@H](C)/C=C/C=C/C=C/1C` [SIROLIMUS], the Kd in assay [1], in assay [2], in assay [3] and in assay [4] was > 30 µM (inactive) in each case.

In the case of `CCS(=O)(=O)c1cccc(-c2cc(C(=O)NC3CCN(C)CC3)c(C)c3[nH]c4ncc(C)cc4c23)c1` [TAK-901], the Kd in assay [1] was > 30 µM (inactive); in assay [2], > 30 µM (inactive); in assay [3], 0.849 µM (active); in assay [4] it was 1.03 µM (active).

With `CO[C@H]1C[C@@H]2CC[C@@H](C)[C@@](O)(O2)C(=O)C(=O)N2CCCC[C@H]2C(=O)O[C@H]([C@H](C)C[C@@H]2CC[C@@H](OC(=O)C(C)(CO)CO)[C@H](OC)C2)CC(=O)[C@H](C)/C=C(\C)[C@@H](O)[C@@H](OC)C(=O)[C@H](C)C[C@H](C)/C=C/C=C/C=C/1C` [TEMSIROLIMUS], the Kd in assay [1], in assay [2], in assay [3] and in assay [4] was > 30 µM (inactive) each time.

In the case of `COc1cc2c(Nc3ccc(Cl)c(Cl)c3F)ncnc2cc1OC[C@@H]1C[C@@H]2CN(C)C[C@@H]2C1` [TESEVATINIB], the Kd in assay [1], in assay [2], in assay [3] and in assay [4] was > 30 µM (inactive) in each case.

For `O=C(Cc1ccc(-c2ccc(OCCN3CCOCC3)cc2)cn1)NCc1ccccc1` [TIRBANIBULIN], the Kd in assay [1], in assay [2], in assay [3] and in assay [4] was > 30 µM (inactive) throughout.
